The values that follow come from article PMC8956739, “A synthetic lipopeptide targeting top-priority multidrug-resistant Gram-negative pathogens” (Nature Communications, 2022).

Residues, ends and D or L forms follow the SMILES beside them. Where only a bound is given, the exact number is not on record here.

Series [1] has as its system female cynomolgus monkeys. The arrangement: method as in earlier work. The note with it: 3.8 mg/kg/12 h (7.6 mg/kg/day) for 7 days ref 27; cited from earlier work.
Series [2] in a line: 14-day repeat-dose GLP toxicology study. The conditions noted are these: cynomolgus monkey, in vivo. The protocol:
(§1) A 14-day repeat-dose GLP toxicology study of F365 was conducted in Cynomolgus monkeys. The study complied with the OECD Principles of Good Laboratory Practice. […] Cynomolgus monkeys were approximately 2–4 years of age and weighed between 2.0 and 2.9 kg at the start of treatment. Four male and four female cynomolgus monkeys were used for each dose group. F365 (in 0.9% sodium chloride for injection) was administered four times daily (i.e. 6 h ± 15 min apart) as 60-min intravenous infusion at 5, 20, and 50 mg/kg/day for 14 consecutive days; the reference item (vehicle control) was also administered. Assessments of mortality checks, clinical observations, body weight, ophthalmology, and electrocardiography were conducted. Blood and urine samples were collected pre-treatment and at the end of the dosing period for hematology, clinical chemistry, coagulation, and urinalysis assessments. Other blood samples were collected after the first and last dose for toxicokinetic assessment. Following the end of the 14-day dosing period, animals were euthanized on Day 16 and examined macroscopically. Organ weights and macroscopic observations were recorded at necropsy for all groups. Histopathological examinations were performed on the specified tissues and organ list for animals across all groups.

The subject of series [3] is cynomolgus monkeys. The series can be described thus: 14-day repeat-dose GLP toxicology study. The note with it: cynomolgus monkey, in vivo. The protocol: as §1

Turning to Polymyxin B [reference compound], in series [1], the kidney findings result is “increased histological damage in all test animals”.

What is called NOAEL is the highest tested level that showed no adverse finding. What is called AUC(0-t) is the area under the concentration-time curve up to a stated or last time point. The low end stands for less exposure, the high end for more exposure. In turn, `CC[C@@H]1NC(=O)[C@@H](CC(C)C)NC(=O)[C@H](CCN)NC(=O)[C@@H](NC(=O)[C@H](CN)NC(=O)[C@@H](NC(=O)[C@H](CCN)NC(=O)c2ccc(Cl)cc2Cl)[C@@H](C)O)CCNC(=O)[C@H]([C@@H](C)O)NC(=O)[C@H](CCN)NC(=O)[C@H](CCN)NC1=O` [Lipopeptide F365] (HELM PEPTIDE1{[O=C(c1ccc(Cl)cc1Cl)[*:2]].[Dab].T.[NC[C@H](N[*:1])C(=O)[*:2]].[Dab].[Dab].[dL].[Abu].[Dab].[Dab].T}$PEPTIDE1,PEPTIDE1,5:R3-11:R2$$$V2.0) returned an NOAEL in series [2] of at least 20 mg/kg/day. For the same compound, the AUC(0-t) came out at 24 µg·h/mL in series [2] (5 mg/kg, Plasma AUC0-24 Day 1); 26.4 µg·h/mL in series [2] (5 mg/kg, Plasma AUC0-24 Day 14); 97.2 µg·h/mL in series [2] (20 mg/kg, Plasma AUC0-24 Day 1); 110 µg·h/mL in series [2] (20 mg/kg, Plasma AUC0-24 Day 14); 246 µg·h/mL in series [2] (50 mg/kg, Plasma AUC0-24 Day 1); 378 µg·h/mL in series [2] (50 mg/kg, Plasma AUC0-24 Day 14). Besides, the “estimated dose that can be safely administered to patients” value in series [3] is recorded as “at least 6.5 mg/kg/day”. Besides, the Kidney histopathology in series [3] (5 mg/kg) is listed as 8/8 no changes.
